# Measurements as given in patent publication US4442044A, “Process for preparing monoesters and diesters of N-alkyl substituted amino methyl phosphonic acid” (priority 1983, dated 1984).
# Key:
# Assay in all cases: post-emergent herbicidal activity, greenhouse
# Format in all cases: in vivo
# [1] = test system: Barnyardgrass
# In short: (§1)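 Post-emergence foliar spray at tabulated application rates, using aliquots of a 1.0% stock in acetone, THF or water plus ~0.4% emulsifier, applied to 2–3-week-old greenhouse plants. Plant injury was rated relative to controls roughly two and four weeks after treatment.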
# [2] = test system: Canada Thistle; details: Table I
# In short: as §1
# [3] = test system: Cocklebur
# In short: as §1
# [4] = test system: Crabgrass; details: Table II
# In short: as §1
# [5] = test system: Downy Brome
# In short: as §1
# [6] = test system: Hemp Sesbania; details: Table II
# In short: as §1
# [7] = test system: Johnsongrass; details: Table I
# In short: as §1
# [8] = test system: Lambsquarters
# In short: as §1
# [9] = test system: Morningglory
# In short: as §1
# [10] = test system: Panicum Spp; details: Table II
# In short: as §1
# [11] = test system: Quackgrass; details: Table I
# In short: as §1
# [12] = test system: Rice; details: Table II
# In short: as §1
# [13] = test system: Smartweed
# In short: as §1
# [14] = test system: Sorghum; details: Table II
# In short: as §1
# [15] = test system: Soybean; details: Table II
# In short: as §1
# [16] = test system: Sugar Beet; details: Table II
# In short: as §1
# [17] = test system: Velvetleaf
# In short: as §1
# [18] = test system: Wheat; details: Table II
# In short: as §1
# [19] = test system: Wild Buckwheat; details: Table II
# In short: as §1
# [20] = test system: Yellow Nutsedge; details: Table I
# In short: as §1
structure (smiles),measurement,setting,value
"CCOC(=O)CNCP(=O)(OC(C)CC(=O)OCC)OC(C)CC(=O)OCC (centres unmarked) [Example 15, butanoic acid, 3,3'-[[[[(2-ethoxy-2-oxoethyl]amino]methyl]phospinylidene]bis-(oxy)]bis-, diethyl ester]",post-emergent herbicidal activity index,"[1]; Table I, 2 WAT, 5.6 kg/h",0 (0-24% control)
same,post-emergent herbicidal activity index,"[1]; Table I, 4 WAT, 11.2 kg/h",3 (75-99% control)
same,post-emergent herbicidal activity index,"[1]; Table II, 2 WAT, 1.12 kg/h",0 (0-24% control)
same,post-emergent herbicidal activity index,"[1]; Table II, 4 WAT, 5.6 kg/h",0 (0-24% control)
same,post-emergent herbicidal activity index,"[2]; 2 WAT, 5.6 kg/h",0 (0-24% control)
same,post-emergent herbicidal activity index,"[2]; 4 WAT, 11.2 kg/h",0 (0-24% control)
same,post-emergent herbicidal activity index,"[3]; Table I, 2 WAT, 5.6 kg/h",0 (0-24% control)
same,post-emergent herbicidal activity index,"[3]; Table I, 4 WAT, 11.2 kg/h",1 (25-49% control)
same,post-emergent herbicidal activity index,"[3]; Table II, 2 WAT, 1.12 kg/h",0 (0-24% control)
same,post-emergent herbicidal activity index,"[3]; Table II, 4 WAT, 5.6 kg/h",0 (0-24% control)
same,post-emergent herbicidal activity index,"[4]; 2 WAT, 1.12 kg/h",0 (0-24% control)
same,post-emergent herbicidal activity index,"[4]; 4 WAT, 5.6 kg/h",2 (50-74% control)
same,post-emergent herbicidal activity index,"[5]; Table I, 2 WAT, 5.6 kg/h",0 (0-24% control)
same,post-emergent herbicidal activity index,"[5]; Table I, 4 WAT, 11.2 kg/h",0 (0-24% control)
same,post-emergent herbicidal activity index,"[5]; Table II, 2 WAT, 1.12 kg/h",0 (0-24% control)
same,post-emergent herbicidal activity index,"[5]; Table II, 4 WAT, 5.6 kg/h",0 (0-24% control)
same,post-emergent herbicidal activity index,"[6]; 2 WAT, 1.12 kg/h",0 (0-24% control)
same,post-emergent herbicidal activity index,"[6]; 4 WAT, 5.6 kg/h",0 (0-24% control)
same,post-emergent herbicidal activity index,"[7]; 2 WAT, 5.6 kg/h",0 (0-24% control)
same,post-emergent herbicidal activity index,"[7]; 4 WAT, 11.2 kg/h",0 (0-24% control)
same,post-emergent herbicidal activity index,"[8]; Table I, 2 WAT, 5.6 kg/h",0 (0-24% control)
same,post-emergent herbicidal activity index,"[8]; Table I, 4 WAT, 11.2 kg/h",0 (0-24% control)
same,post-emergent herbicidal activity index,"[8]; Table II, 2 WAT, 1.12 kg/h",0 (0-24% control)
same,post-emergent herbicidal activity index,"[8]; Table II, 4 WAT, 5.6 kg/h",1 (25-49% control)
same,post-emergent herbicidal activity index,"[9]; Table I, 2 WAT, 5.6 kg/h",0 (0-24% control)
same,post-emergent herbicidal activity index,"[9]; Table I, 4 WAT, 11.2 kg/h",1 (25-49% control)
same,post-emergent herbicidal activity index,"[9]; Table II, 2 WAT, 1.12 kg/h",0 (0-24% control)
same,post-emergent herbicidal activity index,"[9]; Table II, 4 WAT, 5.6 kg/h",1 (25-49% control)
same,post-emergent herbicidal activity index,"[10]; 2 WAT, 1.12 kg/h",0 (0-24% control)
same,post-emergent herbicidal activity index,"[10]; 4 WAT, 5.6 kg/h",1 (25-49% control)
same,post-emergent herbicidal activity index,"[11]; 2 WAT, 5.6 kg/h",0 (0-24% control)
same,post-emergent herbicidal activity index,"[11]; 4 WAT, 11.2 kg/h",1 (25-49% control)
same,post-emergent herbicidal activity index,"[12]; 2 WAT, 1.12 kg/h",0 (0-24% control)
same,post-emergent herbicidal activity index,"[12]; 4 WAT, 5.6 kg/h",0 (0-24% control)
same,post-emergent herbicidal activity index,"[13]; Table I, 2 WAT, 5.6 kg/h",0 (0-24% control)
same,post-emergent herbicidal activity index,"[13]; Table I, 4 WAT, 11.2 kg/h",0 (0-24% control)
same,post-emergent herbicidal activity index,"[13]; Table II, 2 WAT, 1.12 kg/h",0 (0-24% control)
same,post-emergent herbicidal activity index,"[13]; Table II, 4 WAT, 5.6 kg/h",0 (0-24% control)
same,post-emergent herbicidal activity index,"[14]; 2 WAT, 1.12 kg/h",0 (0-24% control)
same,post-emergent herbicidal activity index,"[14]; 4 WAT, 5.6 kg/h",0 (0-24% control)
same,post-emergent herbicidal activity index,"[15]; 2 WAT, 1.12 kg/h",0 (0-24% control)
same,post-emergent herbicidal activity index,"[15]; 4 WAT, 5.6 kg/h",1 (25-49% control)
same,post-emergent herbicidal activity index,"[16]; 2 WAT, 1.12 kg/h",0 (0-24% control)
same,post-emergent herbicidal activity index,"[16]; 4 WAT, 5.6 kg/h",0 (0-24% control)
same,post-emergent herbicidal activity index,"[17]; Table I, 2 WAT, 5.6 kg/h",0 (0-24% control)
same,post-emergent herbicidal activity index,"[17]; Table I, 4 WAT, 11.2 kg/h",0 (0-24% control)
same,post-emergent herbicidal activity index,"[17]; Table II, 2 WAT, 1.12 kg/h",0 (0-24% control)
same,post-emergent herbicidal activity index,"[17]; Table II, 4 WAT, 5.6 kg/h",0 (0-24% control)
same,post-emergent herbicidal activity index,"[18]; 2 WAT, 1.12 kg/h",0 (0-24% control)
same,post-emergent herbicidal activity index,"[18]; 4 WAT, 5.6 kg/h",1 (25-49% control)
same,post-emergent herbicidal activity index,"[19]; 2 WAT, 1.12 kg/h",0 (0-24% control)
same,post-emergent herbicidal activity index,"[19]; 4 WAT, 5.6 kg/h",0 (0-24% control)
same,post-emergent herbicidal activity index,"[20]; 2 WAT, 5.6 kg/h",0 (0-24% control)
same,post-emergent herbicidal activity index,"[20]; 4 WAT, 11.2 kg/h",1 (25-49% control)
"CCOC(=O)CNCP(=O)(OCC1COC(C)(C)O1)OCC1COC(C)(C)O1 (centres unmarked) [Example 22, glycine, N-[[bis[(2,2-dimethyl-1,3-dioxolan-4-yl)methoxy]phosphinyl]methyl]-, ethyl ester]",post-emergent herbicidal activity index,"[1]; Table I, 4 WAT, 11.2 kg/h",3 (75-99% control)
same,post-emergent herbicidal activity index,"[1]; Table I, 4 WAT, 56.0 kg/h",3 (75-99% control)
same,post-emergent herbicidal activity index,"[1]; Table II, 2 WAT, 1.12 kg/h",1 (25-49% control)
same,post-emergent herbicidal activity index,"[1]; Table II, 4 WAT, 5.6 kg/h",2 (50-74% control)
same,post-emergent herbicidal activity index,"[2]; 4 WAT, 11.2 kg/h",0 (0-24% control)
same,post-emergent herbicidal activity index,"[2]; 4 WAT, 56.0 kg/h",2 (50-74% control)
same,post-emergent herbicidal activity index,"[3]; Table I, 4 WAT, 11.2 kg/h",0 (0-24% control)
same,post-emergent herbicidal activity index,"[3]; Table I, 4 WAT, 56.0 kg/h",2 (50-74% control)
same,post-emergent herbicidal activity index,"[3]; Table II, 4 WAT, 5.6 kg/h",0 (0-24% control)
same,post-emergent herbicidal activity index,"[4]; 2 WAT, 1.12 kg/h",1 (25-49% control)
same,post-emergent herbicidal activity index,"[4]; 4 WAT, 5.6 kg/h",2 (50-74% control)
same,post-emergent herbicidal activity index,"[5]; Table I, 4 WAT, 11.2 kg/h",0 (0-24% control)
same,post-emergent herbicidal activity index,"[5]; Table I, 4 WAT, 56.0 kg/h",2 (50-74% control)
same,post-emergent herbicidal activity index,"[5]; Table II, 2 WAT, 1.12 kg/h",0 (0-24% control)
same,post-emergent herbicidal activity index,"[5]; Table II, 4 WAT, 5.6 kg/h",0 (0-24% control)
same,post-emergent herbicidal activity index,"[6]; 2 WAT, 1.12 kg/h",2 (50-74% control)
same,post-emergent herbicidal activity index,"[7]; 4 WAT, 11.2 kg/h",0 (0-24% control)
same,post-emergent herbicidal activity index,"[7]; 4 WAT, 56.0 kg/h",1 (25-49% control)
same,post-emergent herbicidal activity index,"[8]; Table I, 4 WAT, 11.2 kg/h",0 (0-24% control)
same,post-emergent herbicidal activity index,"[8]; Table I, 4 WAT, 56.0 kg/h",3 (75-99% control)
same,post-emergent herbicidal activity index,"[8]; Table II, 2 WAT, 1.12 kg/h",1 (25-49% control)
same,post-emergent herbicidal activity index,"[8]; Table II, 4 WAT, 5.6 kg/h",0 (0-24% control)
same,post-emergent herbicidal activity index,"[9]; Table I, 4 WAT, 11.2 kg/h",1 (25-49% control)
same,post-emergent herbicidal activity index,"[9]; Table I, 4 WAT, 56.0 kg/h",2 (50-74% control)
same,post-emergent herbicidal activity index,"[9]; Table II, 2 WAT, 1.12 kg/h",0 (0-24% control)
same,post-emergent herbicidal activity index,"[9]; Table II, 4 WAT, 5.6 kg/h",1 (25-49% control)
same,post-emergent herbicidal activity index,"[10]; 2 WAT, 1.12 kg/h",0 (0-24% control)
same,post-emergent herbicidal activity index,"[10]; 4 WAT, 5.6 kg/h",3 (75-99% control)
same,post-emergent herbicidal activity index,"[11]; 4 WAT, 11.2 kg/h",0 (0-24% control)
same,post-emergent herbicidal activity index,"[11]; 4 WAT, 56.0 kg/h",3 (75-99% control)
same,post-emergent herbicidal activity index,"[12]; 2 WAT, 1.12 kg/h",0 (0-24% control)
same,post-emergent herbicidal activity index,"[12]; 4 WAT, 5.6 kg/h",0 (0-24% control)
same,post-emergent herbicidal activity index,"[13]; Table I, 4 WAT, 11.2 kg/h",0 (0-24% control)
same,post-emergent herbicidal activity index,"[13]; Table I, 4 WAT, 56.0 kg/h",3 (75-99% control)
same,post-emergent herbicidal activity index,"[14]; 2 WAT, 1.12 kg/h",0 (0-24% control)
same,post-emergent herbicidal activity index,"[14]; 4 WAT, 5.6 kg/h",1 (25-49% control)
same,post-emergent herbicidal activity index,"[15]; 2 WAT, 1.12 kg/h",0 (0-24% control)
same,post-emergent herbicidal activity index,"[15]; 4 WAT, 5.6 kg/h",0 (0-24% control)
same,post-emergent herbicidal activity index,"[16]; 2 WAT, 1.12 kg/h",0 (0-24% control)
same,post-emergent herbicidal activity index,"[16]; 4 WAT, 5.6 kg/h",0 (0-24% control)
same,post-emergent herbicidal activity index,"[17]; Table I, 4 WAT, 11.2 kg/h",0 (0-24% control)
same,post-emergent herbicidal activity index,"[17]; Table I, 4 WAT, 56.0 kg/h",2 (50-74% control)
same,post-emergent herbicidal activity index,"[17]; Table II, 2 WAT, 1.12 kg/h",0 (0-24% control)
same,post-emergent herbicidal activity index,"[17]; Table II, 4 WAT, 5.6 kg/h",1 (25-49% control)
same,post-emergent herbicidal activity index,"[18]; 2 WAT, 1.12 kg/h",0 (0-24% control)
same,post-emergent herbicidal activity index,"[18]; 4 WAT, 5.6 kg/h",1 (25-49% control)
same,post-emergent herbicidal activity index,"[19]; 2 WAT, 1.12 kg/h",0 (0-24% control)
same,post-emergent herbicidal activity index,"[19]; 4 WAT, 5.6 kg/h",2 (50-74% control)
same,post-emergent herbicidal activity index,"[20]; 4 WAT, 11.2 kg/h",0 (0-24% control)
same,post-emergent herbicidal activity index,"[20]; 4 WAT, 56.0 kg/h",2 (50-74% control)
